Assay results from patent publication US11078170B2 (Assembly Biosciences, Inc., priority 2017, dated 2021).

Tested on: HBV viral production from HepAD38 cells
Assay: Activity of test compounds on viral production from HepAD38 cells (viral load by qPCR of HBV core sequence in supernatant)
Type: cell-based
Conditions: Hepatitis B virus, 120 h, 5 days incubation, HBV DNA in supernatant by qPCR, top concentration 10 μM, read-out: Viral Load EC50 Activity range
Protocol: Assay Measuring Activity of Test Compounds on Viral Production from HepAD38 Cells
HepAD38 cells grown in a T-150 flask (Corning, cat #: 430825) with Growth Medium (DMEM/F12 (1:1) (Hyclone, cat #: SH30023.02), 1×Pen/Strep (Invitrogen, cat #: 15140-122), 10% FBS (Tissue Culture Biologics, cat #: 101), 250 μg/mL G418 (Alfa Aesar, cat #: J62671), 1 μg/mL Tetracycline (Teknova, cat #: T3320)) were detached with 0.25% trypsin-EDTA (Invitrogen, cat #: 25200-056). Tetracycline-free treatment medium (15 mL DMEM/F12 (1:1) 1× Pen/step, with 2% FBS, Tet-system approved (Clontech, cat #: 631106) were then added to mix, transferred into a 50 ml conical tube (Falcon, cat #: 21008-918) and spun at 1300 rpm for 5 min. Pelleted cells were then re-suspended/washed with 50 mL of 1×DPBS (Invitrogen, cat #: 14190-136) 2 times and 50 mL treatment medium twice. HepAD38 cells were then re-suspended with 10 mL of treatment medium, syringed and counted. Wells of 96-well clear bottom TC plate (Corning, cat #: 3904) were seeded at 50,000 cells/well in 180 μL of treatment medium, and 20 μL of either 10% DMSO (Sigma, cat #: D4540) as controls or a 10× solution of test compounds in 10% DMSO in treatment media was added for a final compound concentration starting at 10 μM, and plates were incubated in 5% CO2 incubator at 37° C. for 5 days.
Subsequently viral load production was assayed by quantitative PCR (qPCR) of the HBV core sequence. PCR reaction mixture containing forward primers HBV-f 5′-CTGTGCCTTGGGTGGCTTT-3′, which is SEQ ID NO 1, (IDT DNA), Reverse primers HBV-r 5′-[…]-3′, which is SEQ ID NO 2 (IDT DNA), Fluorescent TaqMan™ Probes HBV-probe 5′-FAM/AGCTCCAAA/ZEN/[…]/3IABkFQ-3′ (IDT DNA), which is SEQ ID NO 3, 10 μL/well of PerfeCTa® qPCR ToughMix® (Quanta Biosciences, Cat #: 95114-05K), and 6 µL/well of DEPC water (Alfa Aesar, cat #: J62087) was prepared. Four μL of supernatant was added to 16 μL of the reaction mixture in a qPCR plate (Applied Biosytems, Cat #: 4309849), sealed with a film (Applied Biosystems, Cat #: 4311971), centrifuged for a few seconds, and subsequently run on an Applied Biosystems VIIA7. The PCR mixture was incubated at 45° C. for 5 min, then 95° C. for 10 min, followed by 40 cycles of 10 seconds at 95° C. and 20 seconds at 60° C. Viral load was quantified against known HBV DNA standards by using ViiA™ 7 Software. Viral load in the supernatant from wells with treated cells were compared against viral load in supernatant from DMSO control wells (≥3 per plate). Cell viability assay was performed with CellTiter-Glo Luminescent Cell Viability Assay (Promega, cat #: G7573) with modification. Mixed appropriate amount of CellTiter-Glo (CTG) 1×DPBS in a 1:1 ratio, added 100 uL of the mixture to each well followed completely removal of all supernatant in each well without touching cell surface. Incubated the plate at room temperature for 10 min on an orbital shaker, and then read the plate with a plate reader (TECAN M1000 or Envision). EC50 or CC50 values were calculated through curve-fitting of the four-parameter nonlinear-logistic-regression model (GraphPad Prism or Dotmatics). CC50 values were all >10 μM.

Going from CN1[C@H](C(=O)Nc2ccc(F)c(Cl)c2)C[C@@H](c2ccc(Br)s2)NS1(=O)=O (racemic) [HBV-CSU-114-Trans (Rac), Trans-5-(5-bromothiophen-2-yl)-N-(3-chloro-4-fluorophenyl)-2-methyl-1,2,6-thiadiazinane-3-carboxamide 1,1-dioxide] to CN1C(C(=O)Nc2ccc(F)c(Cl)c2)CC(c2ccc(Br)s2)NS1(=O)=O (stereo not shown) [HBV-CSU-114, 5-(5-Bromothiophen-2-yl)-N-(3-chloro-4-fluorophenyl)-2-methyl-1,2,6-thiadiazinane-3-carboxamide 1,1-dioxide], the EC50 falls from greater than 5000 nM to less than 1000 nM. The second is the more potent here.

CN1[C@H](C(=O)Nc2ccc(F)c(Cl)c2)C[C@H](c2ccc(-c3cnn(C(F)(F)F)c3)s2)NS1(=O)=O [HBV-CSU-321-ISO-I, Cis-N-(3-Chloro-4-fluorophenyl)-2-methyl-5-(5-(1-(trifluoromethyl)-1H-pyrazol-4-yl)thiophen-2-yl)-1,2,6-thiadiazinane-3-carboxamide 1,1-dioxide] and CN1[C@H](C(=O)Nc2ccc(F)c(Cl)c2)C[C@H](c2ccc(-c3cncs3)s2)NS1(=O)=O [HBV-CSU-268-ISO-I, Cis-N-(3-Chloro-4-fluorophenyl)-2-methyl-5-(5-(thiazol-5-yl)thiophen-2-yl)-1,2,6-thiadiazinane-3-carboxamide 1,1-dioxide] cannot be ordered by EC50: less than 1000 nM for the first, less than 1000 nM for the second.

First: CN1[C@@H](C(=O)Nc2ccc(F)c(Cl)c2)C[C@@H](c2cccc(F)c2)NS1(=O)=O [HBV-CSU-231-ISO-II, Cis-N-(3-Chloro-4-fluorophenyl)-5-(3-fluorophenyl)-2-methyl-1,2,6-thiadiazinane-3-carboxamide 1,1-dioxide]
Second: CN1[C@@H](C(=O)Nc2ccc(F)c(Cl)c2)C[C@@H](c2ccc(-c3ccc(F)cc3)s2)NS1(=O)=O [HBV-CSU-238-ISO-II]
The EC50 of the first is higher: greater than 5000 nM for the first, 1000 to 5000 nM for the second.

First: [2H]C1[C@]([2H])(C(=O)Nc2ccc(F)c(Cl)c2)N(C([2H])([2H])[2H])S(=O)(=O)N[C@]1([2H])c1ccc(-c2cn(C([2H])([2H])[2H])cn2)s1 (stereo in doubt) [HBV-CSU-378-ISO-II, Cis-N-(3-chloro-4-fluorophenyl)-2-(methyl-d3)-5-(5-(1-(methyl-d3)-1H-imidazol-4-yl)thiophen-2-yl)-1,2,6-thiadiazinane-3,4,5-d3-3-carboxamide 1,1-dioxide]
Second: [2H]C1[C@]([2H])(c2ccc(Br)s2)NS(=O)(=O)N(C([2H])([2H])[2H])[C@]1([2H])C(=O)Nc1ccc(F)c(Cl)c1 (stereo in doubt) [HBV-CSU-372-ISO-I, Cis-5-(5-bromothiophen-2-yl)-N-(3-chloro-4-fluorophenyl)-2-(methyl-d3)-1,2,6-thiadiazinane-3,4,5-d3-3-carboxamide 1,1-dioxide]
The EC50 of the first is higher: 1000 to 5000 nM for the first, less than 1000 nM for the second. The second is the more potent here.

Compared with CN1[C@H](C(=O)Nc2ccc(F)c(Cl)c2)C[C@H](c2ccc(-c3ncnn3C)s2)NS1(=O)=O [HBV-CSU-323-ISO-I, Cis-N-(3-Chloro-4-fluorophenyl)-2-methyl-5-(5-(1-methyl-1H-1,2,4-triazol-5-yl)thiophen-2-yl)-1,2,6-thiadiazinane-3-carboxamide 1,1-dioxide], CN1[C@@H](C(=O)Nc2ccc(F)c(Cl)c2)C[C@@H](c2ccc(-c3ncn(C)n3)s2)NS1(=O)=O [HBV-CSU-322-ISO-II, Cis-N-(3-Chloro-4-fluorophenyl)-2-methyl-5-(5-(1-methyl-1H-1,2,4-triazol-3-yl)thiophen-2-yl)-1,2,6-thiadiazinane-3-carboxamide 1,1-dioxide] is higher in EC50: less than 1000 nM for the first, greater than 5000 nM for the second.

Compared with O=C(Nc1ccc(F)c(Cl)c1)C1CC(c2nccs2)NS(=O)(=O)N1CCO (stereo not drawn) [HBV-CSU-097, Cis-N-(3-Chloro-4-fluorophenyl)-2-(2-hydroxyethyl)-5-(thiazol-2-yl)-1,2,6-thiadiazinane-3-carboxamide 1,1-dioxide], O=C(Nc1ccc(F)c(Cl)c1)[C@@H]1C[C@H](c2nccs2)NS(=O)(=O)N1CCOC(F)(F)F [HBV-CSU-072-ISO-II, Cis-N-(3-Chloro-4-fluorophenyl)-5-(thiazol-2-yl)-2-(2-(trifluoromethoxy)ethyl)-1,2,6-thiadiazinane-3-carboxamide 1,1-dioxide] is lower in EC50: greater than 5000 nM for the first, less than 1000 nM for the second. The second is the more potent here.

First: O=C(Nc1ccc(F)c(Cl)c1)C1CC(c2nccs2)NS(=O)(=O)N1 (stereo not drawn) [HBV-CSU-096, Cis-N-(3-Chloro-4-fluorophenyl)-5-(thiazol-2-yl)-1,2,6-thiadiazinane-3-carboxamide 1,1-dioxide]
Second: Cc1csc([C@H]2C[C@@H](C(=O)Nc3ccc(F)c(Cl)c3)N(C)S(=O)(=O)N2)c1 [HBV-CSU-147-ISO-I, Cis-N-(3-chloro-4-fluorophenyl)-2-methyl-5-(4-methylthiophen-2-yl)-1,2,6-thiadiazinane-3-carboxamide 1,1-dioxide]
The EC50 of the first is higher: 1000 to 5000 nM for the first, less than 1000 nM for the second. The second is the more potent here.

CN1C(C(=O)Nc2ccc(F)cc2)CC(c2cccs2)NS1(=O)=O (racemic) [HBV-CSU-007, Cis-N-(4-Fluorophenyl)-2-methyl-5-(thiophen-2-yl)-1,2,6-thiadiazinane-3-carboxamide 1,1-dioxide] and COCCN1C(C(=O)Nc2ccc(F)c(Cl)c2)CC(c2cccs2)NS1(=O)=O (racemic) [HBV-CSU-025, Cis-N-(3-chloro-4-fluorophenyl)-2-(2-methoxyethyl)-5-(thiophen-2-yl)-1,2,6-thiadiazinane-3-carboxamide 1,1-dioxide] cannot be ordered by EC50: less than 1000 nM for the first, less than 1000 nM for the second.

Going from CN1C(C(=O)Nc2ccc(F)c(Cl)c2)CC(c2ccc(Cc3ccccc3)s2)NS1(=O)=O (stereo not drawn) [HBV-CSU-117, Cis-(5-benzylthiophen-2-yl)-N-(3-chloro-4-fluorophenyl)-2-methyl-1,2,6-thiadiazinane-3-carboxamide 1,1-dioxide] to CN1[C@@H](C(=O)Nc2ccc(F)c(Cl)c2)C[C@@H](c2cc(-c3ccc(C(F)(F)F)nc3)cs2)NS1(=O)=O [HBV-CSU-166-ISO-II, Cis-N-(3-chloro-4-fluorophenyl)-2-methyl-5-(4-(6-(trifluoromethyl)pyridin-3-yl)thiophen-2-yl)-1,2,6-thiadiazinane-3-carboxamide 1,1-dioxide], the EC50 rises from less than 1000 nM to greater than 5000 nM. The first is the more potent here.

Cc1nn(C)cc1-c1csc([C@H]2C[C@@H](C(=O)Nc3ccc(F)c(Cl)c3)N(C)S(=O)(=O)N2)c1 [HBV-CSU-316-ISO-I, Cis-N-(3-chloro-4-fluorophenyl)-5-(4-(1,3-dimethyl-1H-pyrazol-4-yl)thiophen-2-yl)-2-methyl-1,2,6-thiadiazinane-3-carboxamide 1,1-dioxide] and Cc1c(-c2csc([C@@H]3C[C@H](C(=O)Nc4ccc(F)c(Cl)c4)N(C)S(=O)(=O)N3)c2)cnn1C (relative stereo) [HBV-CSU-315-ISO-II, Cis-N-(3-chloro-4-fluorophenyl)-5-(4-(1,5-dimethyl-1H-pyrazol-4-yl)thiophen-2-yl)-2-methyl-1,2,6-thiadiazinane-3-carboxamide 1,1-dioxide] cannot be ordered by EC50: less than 1000 nM for the first, less than 1000 nM for the second.

C[C@H]1C[C@@H](C(=O)Nc2ccc(F)c(Cl)c2)N(C)S(=O)(=O)N1 [HBV-CSU-050-ISO-I, Cis-N-(3-chloro-4-fluorophenyl)-2,5-dimethyl-1,2,6-thiadiazinane-3-carboxamide 1,1-dioxide] and CCc1sc([C@@H]2C[C@H](C(=O)Nc3ccc(F)c(Cl)c3)N(C)S(=O)(=O)N2)cc1-c1cnn(C)c1 [HBV-CSU-305-ISO-II, Cis-N-(3-Chloro-4-fluorophenyl)-5-(5-ethyl-4-(1-methyl-1H-pyrazol-4-yl)thiophen-2-yl)-2-methyl-1,2,6-thiadiazinane-3-carboxamide 1,1-dioxide] fall in the same range of EC50: 1000 to 5000 nM for the first, 1000 to 5000 nM for the second.
